Reference: patent publication US10000775B2, “Biosynthesis of 1-undecene and related terminal olefins” (The Regents of the University of California, priority 2013, dated 2018)

Key:
Assay type in all cases: biochemical, Pseudomonas fluorescens Pf-5
PFL_4321 [1] = experiment: In vitro enzymatic assays of PFL_4321 with fatty acid substrates or analogs; conditions: purified PFL_4321, Fe2+, ascorbic acid
Procedure: A typical condition is as follows: 1 mL of reaction mixture contains 50 mM MES buffer (pH 6.2), 300 mM NaCl, 100 μM (NH4)2Fe(SO4)2, 1 mM ascorbic acid, 100 μM fatty acid substrate or analogs, and 10 μM enzyme. The reaction was performed in a sealed headspace vial at 30° C., initiated by adding lauric acid and quenched by injecting equal volume of 5 M NaOH. 1-Undecene production was analyzed and quantified by using the SPME-GCMS method. To determine the kinetic parameters of PFL_4321 on lauric acid, initial velocities at 1, 10, 20, 50, 100, and 150 μM of lauric acid were measured (25 mM lauric acid solution was prepared by adding 0.5% tergitol and heating at 65° C. for 10 min). The reactions were quenched at 2, 4, 6, 8, and 10 seconds, and the acquired turnover rates were fit to the Michaelis-Menten equation using GraphPad Prism to obtain kcat and Km. The kcat and Km of myristic acid and capric acid were determined similarly.
To acquire the kinetic parameters of PFL_4321 on 11-aminoundecanoic acid and 12-aminododecanoic acid, initial velocities at 25, 50, 100, 150, 200, 250, 500, and 700 μM were measured. 50 μl of aliquots of the reaction were quenched at 1, 1.5, 2, 2.5, 3, 3.5, 4, 4.5, 5, 5.5, and 6 minutes by adding 100 μl of acetonitrile. Denatured enzymes were removed by centrifugation at 15,000 g for 20 min. LC-HRMS analysis was carried out on an Agilent Technologies 6520 Accurate-Mass Q-TOF LC-MS instrument equipped with an Agilent Eclipse Plus C18 column (3.5 μm, 4.6×100 mm). 10 μL of the solution was injected into LC-HRMS and a linear gradient of 55 to 95% CH3CN (vol/vol) over 15 min in H2O with 0.1% (vol/vol) formic acid at a flow rate of 0.5 mL/min was used for analysis. The exact masses of aminoundec-1-ene and aminodec-1-ene were extracted, and the peaks were integrated and compared with the standard compounds.

PFL_4321 [2] = experiment: Metal ion requirement of PFL_4321 in vitro (1-undecene production from lauric acid)
Procedure: Additional in vitro assays were performed with PFL_4321 using lauric acid, its esters, or thioesters as potential substrates. […] PFL_4321 was incubated with lauric acid in the presence of various metal ions, including Fe^2+, Fe^3+, Mg^2+, Ca^2+, Mn^2+, Co^2+, Ni^2+, Cu^2+, and Zn^2+.

PFL_4321 [3] = experiment: Test of H2O2 as a possible substrate
Procedure: To examine whether the H2O2/Fe^3+ or the H2O2/Fe^2+ system provides for the PFL_4321 activity, anaerobic enzymatic reactions in the glove box were performed. The deoxygenated reaction mixture contained 50 mM MES buffer (pH 6.2), 100 mM NaCl, 100 μM PFL_4321, 100 μM either FeCl3 or (NH4)2Fe(SO4)2, 1 mM LA, and various amount of H2O2 (100, 200, 500, 1000, 5000 μM), and 1-undecene production was analyzed. The aerobic reaction was carried out under similar conditions except that the O2 was provided by mixing with the equal volume of O2-saturated buffer solution (50 mM MES, pH 6.2, 100 mM NaCl).

PFL_4321 [4] = experiment: Survey of reductive cofactors/cosubstrates under iron-limited conditions; conditions: iron-limiting conditions; 1 mM reductive cofactor
Procedure: FIG. 7 illustrates a comparison of 1-undecene production by using various reductive cofactors/cosubstrates under iron-limited conditions. 2.5 mL of reaction mixture contains 100 μM MES (pH 6.1), 300 mM NaCl, 50 μM lauric acid, 5 μM PFL_4321, 0.1 μM (NH4)2Fe(SO4)2, and 1 mM reductive cofactor. When needed, 40 μM FAD, FMN, ferredoxin, or phenazine, and 20 μM flavin reductase (FL-R) or ferredoxin reductase (FR) were added.
A survey was conducted to identify the possible reductive cofactor/cosubstrates according to the well-studied oxygen-activating iron-dependent oxygenases, including but not limited to α-ketoglutarate, ascorbic acid, glutathione, cysteine, nicotinamides, flavins, ferredoxin (F. H. Vaillancourt et al., Nature 436, 1191, 2005; W. C. Chang et al., Nature 496, 114, 2013; L. M. Mirica et al., J Am Chem Soc 130, 8122, 2008; P. C. Bruijnincx et al., Chem Soc Rev 37, 2716, 2008). […] Accordingly, ascorbic acid was included in all of the following in vitro assays and the kinetic parameters of PFL_4321 toward lauric acid (C12) were determined (FIG. 8).

PFL_4321 [5] = experiment: Reductive co-substrate screening, with chlorite dismutase coupled assay; conditions: coupled with chlorite dismutase reaction to generate O2 in situ
Procedure: FIG. 28 illustrates a comparison of 1-undecene production by using various reductive cofactors/cosubstrates in the presence of excessive O2 provided by the coupled […] dismutase reaction. The reaction mixture contains 100 μM MES (pH 6.1), 300 mM NaCl, 1 mM lauric acid (dissolved in 0.5% tergitol), 100 μM PFL_4321, 100 μM (NH4)2Fe(SO4)2, 2 μM chlorite dismutase, 4 mM sodium chlorite, and 2 mM reductive cofactor/co-substrates. When needed, 40 μM FAD, FMN, ferredoxin, PQQ, or PMS, and 20 μM flavin reductase (FL-R) or ferredoxin reductase (FR) were added. 1-undecene production was analyzed after reacting for 100 min. Error bars represent standard deviations from at least three independently performed experiments.
To survey the possible reductive co-substrates, the oxygenated buffer solution (50 mM MES, pH 6.2, 100 mM NaCl) was mixed with an equal volume of an O2-free solution containing 50 mM MES buffer (pH 6.2), 100 mM NaCl, 200 μM PFL_4321, 200 μM (NH4)2Fe(SO4)2, 2 mM LA, and 4 mM of the reductive co-substrate, so that the final mixture contained 50 mM MES buffer (pH 6.2), 100 mM NaCl, 100 μM PFL_4321, 100 μM (NH4)2Fe(SO4)2, 1 mM LA, and 2 mM of the reductive co-substrate. The reaction was carried out in a sealed GC vial due to the semi-volatility of 1-undecene. […]

Compound	conversion of the substrate by PFL_4321 (to the corresponding minus-1-carbon 1-alkene or other product) (PFL_4321 [1])	further results
CCCCCCCCCC=CC(=O)O [2,3-dodecenoic acid]	no activity	–
CCCCCCCCC(C)CCC(=O)O (centres unmarked) [4-methyldodecanoic acid]	converted to their corresponding terminal olefins	–
C#CCCCCCCCCC(=O)O [10-undecynoic acid]	catalyzed the conversion	–
NCCCCCCCCCCC(=O)O [11-aminoundecanoic acid]	catalyzed the conversion	–
O=C(O)CCCCCCCCCCBr [11-bromoundecanoic acid]	catalyzed the conversion	–
CC(C)CCCCCCCCCC(=O)O [11-methyldodecanoic acid]	converted to their corresponding terminal olefins	–
NCCCCCCCCCCCC(=O)O [12-aminododecanoic acid]	catalyzed the conversion	–
O=C(O)CCCCCCCCCCCBr [12-bromododecanoic acid]	catalyzed the conversion	–
O=C(O)CN(CCN(CC(=O)O)CC(=O)O)CC(=O)O [EDTA, ethylenediaminetetraacetic acid]	–	effect on 1-undecene formation by PFL_4321, lauric acid and E. coli crude extract (PFL_4321 [2]; addition of chelating agent): quenched
[Fe+2] [Fe^2+]	–	1-undecene production by PFL_4321 with lauric acid in the presence of the metal ion (PFL_4321 [2]; PFL_4321 incubated with lauric acid and metal ion): elicited the 1-undecene production
OO [H2O2]	–	1-undecene formation in the presence of H2O2 (PFL_4321 [3]; anaerobic reactions with either PFL_4321-Fe(III) or PFL_4321-Fe(II)): no 1-undecene was formed; 1-undecene formation in the presence of H2O2 (PFL_4321 [3]; both H2O2 and O2, PFL_4321-Fe(III)): no 1-undecene was formed; effect of H2O2 on 1-undecene formation (PFL_4321 [3]; reaction containing O2 and PFL_4321-Fe(II)): did not promote
[2H]C([2H])(CCCCCCCCCC)C(=O)O [[α,α-D2]lauric acid]	led to the production of 1-undecene retaining both deuterium atoms	–
O=C1O[C@H]([C@@H](O)CO)C(O)=C1O [ascorbic acid]	–	effect on the yield of 1-undecene (PFL_4321 [4]): significantly increased; multiple turnovers for PFL_4321 in vitro (PFL_4321 [5]): allowed for multiple turnovers; rate of 1-undecene production with multiple turnovers (PFL_4321 [5]): four
CCCCCCCCCC(=O)O [capric acid]	converted	–
CCCCCCCC(=O)O [caprylic acid]	failed to act	–
N[C@@H](CS)C(=O)O [cysteine]	–	effect on the yield of 1-undecene (PFL_4321 [4]): modest effect
O=S(O)S(=O)O [dithionite]	–	effect on 1-undecene production by PFL_4321 (PFL_4321 [3]; added to reduce O2 to H2O2 in situ): inhibited
CCCCCCCCCCCCCC(=O)O [myristic acid]	converted	–
CCCCCCCCCCCCCCCC(=O)O [palmitic acid]	failed to act	–
CCCCCCCCCCC(O)C(=O)O (stereo not drawn) [α-hydroxydodecanoic acid]	transformed	–
CCCCCCCCCC(O)CC(=O)O (stereo not drawn) [β-hydroxydodecanoic acid]	no activity	–
[D23]lauric acid	led to the production of [D22]1-undecene	–
